The values below come from patent US9868722B2, “Monocyclic pyrimidine/pyridine compounds as inhibitors of P97 complex” (Cleave Biosciences, Inc., priority 2013, dated 2018).

One experiment addresses p97 (Homo sapiens, UniProt P55072). Kind of experiment: P97 ATPase biochemical assay (ADP Glo). As for the experimental part:
The ATPase assay is performed according the following protocol: Purified enzyme (20 nM p97), substrate (20 μM ATP) and a dose titration of compounds are mixed in buffer (50 mM TRIS pH 7.5, 20 mM MgCl2, 0.02% TX-100, 1 mM DTT, 0.2% (v/v) glycerol) and incubated at 37° C. for 15 minutes. The reaction is terminated and the level of product generated is measured using the ADP Glo Assay Kit (Promega, Madison Wis.). Plotting product generated versus compound concentration and using a four-parameter fit model generates an IC50 value for each compounds.
The p97 assay is an initial screening assay used to determine inhibitory activity of the monocyclic pyrimidine compounds of the invention against the p97 complex. As discussed above, inhibition of activity of the p97 proteosome complex can enable apoptosis and cause elimination of neoplastic cells (cancer cells). The method follows that of Christianson in Nat. Cell Biol., (2011) 14:93.
Assay Buffer is a mixture of 50 mM TRIS pH 7.5, 20 mM MgCl2, 0.02% TX-100, 1 mM DTT and 0.2% (v/v) Glycerol. The well plate is Platetype: Corning 3674, 384w plate. The identification kit is an ADP glo kit (Promega): stop buffer, detection reagent.
Serial dilute compound in DMSO in a 1:3.33-fold 10 point serial dilution.
0.5 μL compound serial diluted in DMSO (Final Conc. 10%)
2 μL ATP (Final Conc.=20 uM, diluted in assay buffer)
2.5 μL p97 (Final Conc.=20 nM, diluted in assay buffer)
Incubate at 37 degC for 15 min.
Add 5 μL of stop buffer, incubate at RT for 40 min.
Add 10 μL of detection reagent, incubate at RT for 30 min.
Read luminescence on Envision plate reader. • Upon obtaining the data from the luminescence reading, the data may be analyzed as follows:
Normalize luminescence data using no enzyme (full inhibition) and no compound (no inhibition) controls. Plot normalized luminescence data against log-transformed concentration values and fit to a sigmoidal curve to determine IC50 values (done in Collaborative Drug Discovery software).
The results are reported on the following Table for Examples A-EE and the E1-E4 compounds as 50 percent Inhibitory concentration at candidate doses of less than 30 nM, less than 100 nM, less than 300 nM and less than 1000 nM for the p97 inhibition assay.
(In general: ADP-Glo first removes unused ATP, then detects ADP through luciferase.)

The next experiment concerns A549 cells. Kind of experiment: Cultured cancer cell viability assay (cell titer glo, A549 CTG). The format is cell-based. As to conditions: Homo sapiens. The source says: Anti-tumor effects are monitored in cultured cancer cells after several days of compound treatment. The cell titer glo assay (Promega) measures the amount of ATP present as a proxy for cellular viability. Cellular counting is done using high-content microscopy followed by image analysis. A hanging drop 3D-culture system (3D Biomatrix) is used followed by cell titer glo to measure growth in a tumor-like environment.
The cellular assay provides information about the anti-neoplastic activity of the compounds of the invention. The compounds are tested against cultured cancer cells to determine whether or not the compounds of the invention are capable of intersecting with cancer cells to minimize or eliminate such cells. The assay involves establishing colonies of such cells and then treating them with the test compound under specified conditions and analysis regime to determine results.
(§1) Plate 25 μL of A549 cells in every well of 384-well plate using multidrop.
One (1) white plate for viability at 500 cells/well.
Serial dilute compounds with a 10 point 2-fold serial dilution in DMSO to make 250× stock compound solution
Dilute compounds 1:125 in cell culture media to make a 2× solution Add 25 μl of dilution compounds to cell plates in well duplicates
Put cells back in incubator (6 hr incubation for black plates, 72 hr incubation for white plates).
Thaw an aliquot of frozen cell titer glo (Promega G7572) at room temperature.
Add 45 mL of NaCl/PBS solution to 5 ml of cell titer glo (10×).
Remove white plates from incubator, leave at room temp for 30 minutes.
Add 25 μl of diluted cell titer glo to each well.
Shake plate for >1 minute.
Incubate plate for >5 minutes to stabilize luminescence. • Luminescence is stable for up to 3 hours.
Read luminescence on plate reader
The results are reported on the following Table I for Examples A-EE and the E1-E4 compounds as 50 percent Inhibitory concentration at candidate doses of less than 1 μM, less than 3 μM and less than 10 μM for both of the K48 antibody and the p53 (CTG) antibody assays

Experiment [1] concerns K48 poly-Ubiquitin accumulation in A549 cells. Kind of experiment: A549 K48 poly-ubiquitin accumulation immunofluorescence assay. Type of experiment: cell-based. The settings on record: Homo sapiens. As for the experimental part:
Image-analysis is used to generate quantitative data from these assays that can be fit to a four-parameter sigmoid curve to derive IC50 values. Substrates of the ubiquitin-proteasome system, such as p53, are monitored after tumor cell lines are incubated with compounds for several hours. Accumulation of these proteins indicates an inhibition of proteasome-mediated degradation. Accumulation of lysine-48 chain linkage of poly-ubiquitin is also monitored by immunofluorescence as an indicator of ubiquitin-proteasome system inhibition. Both LC3 and SQSTM1 are mediators of autophagy. The localization and amounts of these proteins are monitored by immunofluorescence and report on the activity and inhibition of autophagy in response to p97 inhibition.
as §1
Two (2) black plates for IF at 2500 cells/well
Serial dilute compounds with a 10 point 2-fold serial dilution in DMSO to make 250× stock compound solution Dilute compounds 1:125 in cell culture media to make a 2× solution Add 25 μl of dilution compounds to cell plates in well duplicates Put cells back in incubator (6 hr incubation for black plates, 72 hr incubation for white plates).
Incubate cells in black plates with compound at 37 degC for 6 hrs. add 15 μL of 16% Paraformaldehyde (PFA) directly into media of each well, incubate at room temp for 5 min, flick plate and wash in 50 μL of PBS block in 50 μL of Blocking Buffer for 30 minutes (can go up to several hours) Blocking buffer: 1×PBS, 1% BSA, 0.3% Triton-X100, Hoechst (1:10,000) incubate in 25 μL of primary antibody in blocking buffer at 4 degC over night […]
Secondary Antibodies: • AlexaFluor488 Goat anti-Rabbit 1:2,000 (Life Tech A11008) • AlexaFluor555 Goat anti-Mouse 1:2,000 (Life Tech A21422) incubate in 25 μl of secondary antibody (1:2,000) in blocking buffer for 1-2 hrs at room temp (alexafluor488-anti-Rabbit/alexafluor555-anti-Mouse) Image plates in high content microscope with 405 nm, 488 nm and 555 nm filters Nuclear counts and cellular intensities of each markers are measured using Hoechst as a nuclear marker with an automated image analysis protocol using Matlab software (Math Works) The results are reported on the following Table I for Examples A-EE and the E1-E4 compounds as 50 percent Inhibitory concentration at candidate doses of less than 1 μM, less than 3 μM and less than 10 μM for both of the K48 antibody and the p53 (CTG) antibody assays

Setting [2] is: 20 nM p97, 20 uM ATP, 37 degC 15 min.
Where [3] appears, read: A549 cells, 72 hr incubation, cell titer glo, read-out: A549 CTG IC50.
The mark [4] stands for this setting: A549 cells, 6 hr incubation, K48-Ub antibody, read-out: A549 K48 IC50.
Setting [5] is: A549, Table II, preliminary assays, read-out: Cell Titre Glow Assay IC50.
Where [6] appears, read: A549, Table II, preliminary assays, read-out: K48 poly-Ubiquitin Accumulation.

Structures are written as SMILES. Structures can show the parent of a compound that is named as a salt. Where two headings read alike, the source gives them in different places.

Chain of p97 (P55072 whole entry): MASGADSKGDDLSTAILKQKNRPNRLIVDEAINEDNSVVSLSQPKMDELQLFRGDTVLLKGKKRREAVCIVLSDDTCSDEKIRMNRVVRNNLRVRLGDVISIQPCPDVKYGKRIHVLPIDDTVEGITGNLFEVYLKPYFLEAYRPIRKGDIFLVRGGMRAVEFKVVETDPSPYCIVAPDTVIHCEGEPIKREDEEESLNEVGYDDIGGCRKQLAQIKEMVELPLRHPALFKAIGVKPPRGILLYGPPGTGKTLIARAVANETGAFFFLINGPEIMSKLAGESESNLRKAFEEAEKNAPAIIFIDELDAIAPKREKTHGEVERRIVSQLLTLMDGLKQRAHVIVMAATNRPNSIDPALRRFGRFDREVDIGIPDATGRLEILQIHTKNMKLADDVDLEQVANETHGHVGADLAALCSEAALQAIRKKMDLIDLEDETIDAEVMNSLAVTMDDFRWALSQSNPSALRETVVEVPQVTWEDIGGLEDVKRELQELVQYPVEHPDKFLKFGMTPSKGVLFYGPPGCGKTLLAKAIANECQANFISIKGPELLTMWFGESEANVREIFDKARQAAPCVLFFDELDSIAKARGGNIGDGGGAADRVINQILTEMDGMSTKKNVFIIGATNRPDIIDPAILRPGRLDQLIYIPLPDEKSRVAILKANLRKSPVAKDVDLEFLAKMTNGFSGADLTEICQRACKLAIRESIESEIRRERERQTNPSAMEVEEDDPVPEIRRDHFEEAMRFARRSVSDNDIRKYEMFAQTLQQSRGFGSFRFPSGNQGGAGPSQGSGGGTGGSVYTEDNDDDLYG

As to `COCCOc1cnc(-n2c(C)cc3c(C(N)=O)cccc32)nc1NCc1ccccc1` [Example 28, 1-[4-(benzylamino)-5-(2-methoxyethoxy)pyrimidin-2-yl]-2-methyl-1H-indole-4-carboxamide], the IC50 on p97 (setting [2]) is less than 100 nM; in the experiment with A549 cells (setting [3]) it was less than 10000 nM; in experiment [1] (setting [4]), less than 3000 nM.

Regarding `Cc1cc2c(C(N)=O)cccc2n1-c1ncc(C(C)C)c(NCc2ccccc2)n1` [Example 12, 1-(4-(benzylamino)-5-(propan-2-yl)pyrimidin-2-yl)-2-methyl-1H-indole-4-carboxamide], the IC50 at p97 (setting [2]) was less than 30 nM; at p97 (Table II, preliminary assays) it was 9 nM; in the experiment on A549 cells (setting [5]), 730 nM; in the experiment on A549 cells (setting [3]) it was less than 1000 nM; in experiment [1] (setting [6]), 640 nM; in experiment [1] (setting [4]), less than 3000 nM.

Turning to `Cc1c(NCc2ccccc2)nc(-n2c(C)cc3c(C(N)=O)cccc32)nc1C(F)(F)F` [Example 9, 1-[4-(benzylamino)-5-methyl-6-(trifluoromethyl)pyrimidin-2-yl]-2-methyl-1H-indole-4-carboxamide], the IC50 was less than 30 nM at p97 (setting [2]), less than 3000 nM in the experiment on A549 cells (setting [3]) and less than 3000 nM in experiment [1] (setting [4]).

Regarding `COc1cnc(-n2c(C)cc3c(CN)cccc32)nc1NCc1ccccc1` [Example 37, 2-[4-(aminomethyl)-2-methyl-1H-indol-1-yl]-N-benzyl-5-methoxypyrimidin-4-amine], the IC50 against p97 (setting [2]) is less than 1000 nM; in the experiment on A549 cells (setting [3]), less than 10000 nM; in experiment [1] (setting [4]), less than 3000 nM.

Take `CNCc1cnc(-n2c(C)cc3c(C(N)=O)cccc32)nc1NCc1ccccc1` [Example 23, 1-[4-(benzylamino)-5-[(methylaminoc)methyl]pyrimidin-2-yl]-2-methyl-1H-indole-4-carboxamide]: on p97 (setting [2]), the IC50 was less than 1000 nM.

For the molecule `Cc1nc(-n2c(C)cc3c(C(N)=O)cccc32)nc(NCc2ccccc2)c1N(C)C` [Example 15, 1-[4-(benzylamino)-5-(dimethylamino)-6-methylpyrimidin-2-yl]-2-methyl-1H-indole-4-carboxamide], the IC50 against p97 (setting [2]) is less than 30 nM; with A549 cells (setting [3]) it was less than 3000 nM; in experiment [1] (setting [4]), less than 3000 nM.

`CC(C)c1cnc(-n2c(CN)cc3c(C(N)=O)cccc32)nc1NCc1ccccc1` [Example 30, 2-(aminomethyl)-1-[4-(benzylamino)-5-(propan-2-yl)pyrimidin-2-yl]-1H-indole-4-carboxamide]: the values for the IC50 (at p97 (setting [2]); in the experiment on A549 cells (setting [3]); in experiment [1] (setting [4])) were less than 100 nM, less than 3000 nM and less than 3000 nM, respectively.

Consider `Cc1cc2c(C(N)=O)cccc2n1-c1ncc(Cl)c(NCc2ccccc2)n1` [Example 5, 1-[4-(benzylamino)-5-chloropyrimidin-2-yl]-2-methyl-1H-indole-4-carboxamide], for which the IC50 was less than 30 nM at p97 (setting [2]); 12 nM on p97 (Table II, preliminary assays); 1790 nM in the experiment with A549 cells (setting [5]); less than 3000 nM with A549 cells (setting [3]); 1400 nM in experiment [1] (setting [6]); less than 3000 nM in experiment [1] (setting [4]).

Turning to `Cc1cc2c(C(N)=O)cccc2n1-c1ncc(OCCN)c(NCc2ccccc2)n1` [Example 25, 1-[5-(2-aminoethoxy)-4-(benzylamino)pyrimidin-2-yl]-2-methyl-1H-indole-4-carboxamide], on p97 (setting [2]), the IC50 was less than 1000 nM.

For `Cc1cc2c(C(N)=O)cccc2n1-c1ncc(CN)c(NCc2ccccc2)n1` [Example 22, 1-[5-(aminomethyl)-4-(benzylamino)pyrimidin-2-yl]-2-methyl-1H-indole-4-carboxamide], the IC50 against p97 (setting [2]) is less than 300 nM.

For the molecule `CCc1cnc(-n2c(C)cc3c(C(N)=O)cccc32)nc1NCc1ccccc1` [Example 6, 1-[4-(benzylamino)-5-ethylpyrimidin-2-yl]-2-methyl-1H-indole-4-carboxamide], the IC50 on p97 (setting [2]) was less than 30 nM; in the experiment on A549 cells (setting [3]), less than 1000 nM; in experiment [1] (setting [4]), less than 1000 nM.

Regarding `CNCc1nc(-n2c(C)cc3c(C(N)=O)cccc32)nc(NCc2ccccc2)c1C` [Example 36, 1-[4-(benzylamino)-5-methyl-6-[(methylamino)methyl]pyrimidin-2-yl]-2-methyl-1H-indole-4-carboxamide], the IC50 is less than 100 nM at p97 (setting [2]), less than 10000 nM in the experiment with A549 cells (setting [3]) and less than 10000 nM in experiment [1] (setting [4]).

`CCc1cnc(-n2c(CN)cc3c(C(N)=O)cccc32)nc1NCc1ccccc1` [Example 32, 2-(aminomethyl)-1-[4-(benzylamino)-5-ethylpyrimidin-2-yl]-1H-indole-4-carboxamide] returned an IC50 against p97 (setting [2]) of less than 300 nM.

On to `Cc1cc2c(C(N)=O)cccc2n1-c1ncc(N)c(NCc2ccccc2)n1` [Example 17, 1-[5-amino-4-(benzylamino)pyrimidin-2-yl]-2-methyl-1H-indole-4-carboxamide], for which the IC50 on p97 (setting [2]) is less than 1000 nM.

Turning to `Cc1cc2c(C(N)=O)cccc2n1-c1ncc(CN(C)C)c(NCc2ccccc2)n1` [Example 21, 1-[4-(benzylamino)-5-[(dimethylamino)methyl]pyrimidin-2-yl]-2-methyl-1H-indole-4-carboxamide], the IC50 on p97 (setting [2]) is less than 1000 nM.

`Cc1cc2c(CN)cccc2n1-c1ncc(C(C)C)c(NCc2ccccc2)n1` [Example 39, 2-[4-(aminomethyl)-2-methyl-1H-indol-1-yl]-N-benzyl-5-(propan-2-yl)pyrimidin-4-amine] registered an IC50 against p97 (setting [2]) of less than 1000 nM.

The molecule `Cc1cnc(-n2c(CN)cc3c(C(N)=O)cccc32)nc1NCc1ccccc1` [Example 31, 2-(aminomethyl)-1-[4-(benzylamino)-5-methylpyrimidin-2-yl]-1H-indole-4-carboxamide Hydrochloride] yielded an IC50 against p97 (setting [2]) of less than 1000 nM.
